Measurements reported in PubChem BioAssay (NCI).
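Step 1: Grow cells in 96-well plates. Step 2: Expose to compound for 48 hours at 5 concentrations. Step 3: Interpolate endpoints linearly; if unreached, use highest concentration. The concentration for full growth arrest is given as TGI.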

Assays:
Assay in all cases: inhibition of tumour cell growth, NCI panel, 48 h
786-0 renal = test system: 786-0 renal
A498 renal = test system: A498 renal
A549 NSCLC = test system: A549 NSCLC
ACHN renal = test system: ACHN renal
CAKI-1 renal = test system: CAKI-1 renal
CCRF-CEM leukemia = test system: CCRF-CEM leukemia
COLO 205 colon = test system: COLO 205 colon
DLD-1 colon = test system: DLD-1 colon
DMS 114 small cell lung = test system: DMS 114 small cell lung
DMS 273 small cell lung = test system: DMS 273 small cell lung
EKVX NSCLC = test system: EKVX NSCLC
HCC-2998 colon = test system: HCC-2998 colon
HCT-116 colon = test system: HCT-116 colon
HCT-15 colon = test system: HCT-15 colon
HL-60(TB) leukemia = test system: HL-60(TB) leukemia
HOP-18 NSCLC = test system: HOP-18 NSCLC
HT29 colon = test system: HT29 colon
IGROV1 ovarian = test system: IGROV1 ovarian
K-562 leukemia = test system: K-562 leukemia
KM12 colon = test system: KM12 colon
KM20L2 colon = test system: KM20L2 colon
LOX IMVI melanoma = test system: LOX IMVI melanoma
LXFL 529 NSCLC = test system: LXFL 529 NSCLC
M14 melanoma = test system: M14 melanoma
M19-MEL melanoma = test system: M19-MEL melanoma
MALME-3M melanoma = test system: MALME-3M melanoma
MOLT-4 leukemia = test system: MOLT-4 leukemia
NCI-H226 lung = test system: NCI-H226 lung
NCI-H23 lung = test system: NCI-H23 lung
NCI-H460 lung = test system: NCI-H460 lung
OVCAR-3 ovarian = test system: OVCAR-3 ovarian
OVCAR-4 ovarian = test system: OVCAR-4 ovarian
OVCAR-5 ovarian = test system: OVCAR-5 ovarian
OVCAR-8 ovarian = test system: OVCAR-8 ovarian
RPMI-8226 leukemia = test system: RPMI-8226 leukemia
RXF 393 renal = test system: RXF 393 renal
RXF-631 renal = test system: RXF-631 renal
SF-268 CNS = test system: SF-268 CNS
SF-295 CNS = test system: SF-295 CNS
SF-539 CNS = test system: SF-539 CNS
SK-MEL-2 melanoma = test system: SK-MEL-2 melanoma
SK-MEL-28 melanoma = test system: SK-MEL-28 melanoma
SK-MEL-5 melanoma = test system: SK-MEL-5 melanoma
SK-OV-3 ovarian = test system: SK-OV-3 ovarian
SN12C renal = test system: SN12C renal
SNB-19 CNS = test system: SNB-19 CNS
SNB-75 CNS = test system: SNB-75 CNS
SNB-78 CNS = test system: SNB-78 CNS
SW-620 colon = test system: SW-620 colon
TK-10 renal = test system: TK-10 renal
U251 CNS = test system: U251 CNS
UACC-257 melanoma = test system: UACC-257 melanoma
UACC-62 melanoma = test system: UACC-62 melanoma
UO-31 renal = test system: UO-31 renal
XF 498 CNS = test system: XF 498 CNS
HOP-62 NSCLC = test system: HOP-62 NSCLC
HOP-92 NSCLC = test system: HOP-92 NSCLC
NCI-H522 lung = test system: NCI-H522 lung
SR leukemia = test system: SR leukemia

In the case of O=C1C2C(C(=O)N1c1ccccc1)C1(Br)c3ccccc3C2(Br)C2C(=O)N(c3ccccc3)C(=O)C21 (stereo unspecified), the TGI (786-0 renal) is reported as > 31.6 µM, the TGI (A498 renal) is reported as > 100 µM and the TGI (A549 NSCLC) is reported as > 31.6 µM. The TGI (ACHN renal) was > 31.6 µM, the TGI (CAKI-1 renal) was > 100 µM and the TGI (CCRF-CEM leukemia) was > 31.6 µM. The TGI (COLO 205 colon) was > 31.6 µM, the TGI (DLD-1 colon) was > 31.6 µM and the TGI (DMS 114 small cell lung) was > 31.6 µM. The TGI (DMS 273 small cell lung) was > 31.6 µM, the TGI (EKVX NSCLC) was > 31.6 µM and the TGI (HCC-2998 colon) was > 31.6 µM. For the same compound, the TGI (HCT-116 colon) was > 31.6 µM, the TGI (HCT-15 colon) was > 31.6 µM and the TGI (HL-60(TB) leukemia) was > 31.6 µM. The TGI (HOP-18 NSCLC) was > 31.6 µM, the TGI (HT29 colon) was > 31.6 µM and the TGI (IGROV1 ovarian) was > 31.6 µM. The TGI (K-562 leukemia) was > 31.6 µM, the TGI (KM12 colon) was > 31.6 µM and the TGI (KM20L2 colon) was > 31.6 µM. For the same compound, the TGI (LOX IMVI melanoma) was > 31.6 µM, the TGI (LXFL 529 NSCLC) was > 31.6 µM and the TGI (M14 melanoma) was > 31.6 µM. For the same compound, the TGI (M19-MEL melanoma) was > 31.6 µM, the TGI (MALME-3M melanoma) was > 31.6 µM and the TGI (MOLT-4 leukemia) was > 31.6 µM. For the same compound, the TGI (NCI-H226 lung) was > 31.6 µM, the TGI (NCI-H23 lung) was > 31.6 µM and the TGI (NCI-H460 lung) was > 31.6 µM. For the same compound, the TGI (OVCAR-3 ovarian) was > 31.6 µM, the TGI (OVCAR-4 ovarian) was > 100 µM and the TGI (OVCAR-5 ovarian) was > 31.6 µM. The TGI (OVCAR-8 ovarian) was > 100 µM, the TGI (RPMI-8226 leukemia) was > 31.6 µM and the TGI (RXF 393 renal) was 27.1 µM. For the same compound, the TGI (RXF-631 renal) was > 100 µM, the TGI (SF-268 CNS) was > 31.6 µM and the TGI (SF-295 CNS) was > 100 µM. For the same compound, the TGI (SF-539 CNS) was > 31.6 µM, the TGI (SK-MEL-2 melanoma) was > 31.6 µM and the TGI (SK-MEL-28 melanoma) was > 31.6 µM. For the same compound, the TGI (SK-MEL-5 melanoma) was > 31.6 µM, the TGI (SK-OV-3 ovarian) was > 100 µM and the TGI (SN12C renal) was > 31.6 µM. For the same compound, the TGI (SNB-19 CNS) was > 31.6 µM, the TGI (SNB-75 CNS) was > 31.6 µM and the TGI (SNB-78 CNS) was > 31.6 µM. For the same compound, the TGI (SW-620 colon) was > 31.6 µM, the TGI (TK-10 renal) was > 31.6 µM and the TGI (U251 CNS) was > 31.6 µM. The TGI (UACC-257 melanoma) was > 31.6 µM, the TGI (UACC-62 melanoma) was > 31.6 µM and the TGI (UO-31 renal) was > 31.6 µM. The TGI (XF 498 CNS) was > 100 µM.

COc1ccc(NC(=O)/C(Cc2nc3ccccc3[nH]c2=O)=N\O)c(OC)c1 was tested, and the TGI (786-0 renal) was > 100 µM, the TGI (A498 renal) was > 100 µM and the TGI (A549 NSCLC) was > 100 µM. For the same compound, the TGI (ACHN renal) was > 100 µM, the TGI (CAKI-1 renal) was > 100 µM and the TGI (CCRF-CEM leukemia) was > 100 µM. The TGI (COLO 205 colon) was > 100 µM, the TGI (DLD-1 colon) was > 100 µM and the TGI (DMS 114 small cell lung) was > 100 µM. The TGI (EKVX NSCLC) was > 100 µM, the TGI (HCC-2998 colon) was > 100 µM and the TGI (HCT-116 colon) was > 100 µM. The TGI (HCT-15 colon) was > 100 µM, the TGI (HL-60(TB) leukemia) was > 100 µM and the TGI (HOP-18 NSCLC) was > 100 µM. The TGI (HOP-62 NSCLC) was > 100 µM, the TGI (HOP-92 NSCLC) was > 100 µM and the TGI (HT29 colon) was > 100 µM. The TGI (IGROV1 ovarian) was > 100 µM, the TGI (K-562 leukemia) was > 100 µM and the TGI (KM12 colon) was > 100 µM. The TGI (KM20L2 colon) was > 100 µM, the TGI (LOX IMVI melanoma) was > 100 µM and the TGI (LXFL 529 NSCLC) was > 100 µM. For the same compound, the TGI (M14 melanoma) was > 100 µM, the TGI (M19-MEL melanoma) was > 100 µM and the TGI (MALME-3M melanoma) was > 100 µM. For the same compound, the TGI (NCI-H226 lung) was > 100 µM, the TGI (NCI-H23 lung) was > 100 µM and the TGI (NCI-H460 lung) was > 100 µM. For the same compound, the TGI (NCI-H522 lung) was > 100 µM, the TGI (OVCAR-3 ovarian) was > 100 µM and the TGI (OVCAR-4 ovarian) was > 100 µM. The TGI (OVCAR-5 ovarian) was > 100 µM, the TGI (OVCAR-8 ovarian) was > 100 µM and the TGI (RPMI-8226 leukemia) was > 100 µM. For the same compound, the TGI (RXF 393 renal) was > 100 µM, the TGI (RXF-631 renal) was > 100 µM and the TGI (SF-268 CNS) was > 100 µM. For the same compound, the TGI (SF-295 CNS) was > 100 µM, the TGI (SF-539 CNS) was > 100 µM and the TGI (SK-MEL-28 melanoma) was > 100 µM. The TGI (SK-MEL-5 melanoma) was > 100 µM, the TGI (SK-OV-3 ovarian) was > 100 µM and the TGI (SN12C renal) was > 100 µM. For the same compound, the TGI (SNB-19 CNS) was > 100 µM, the TGI (SNB-75 CNS) was > 100 µM and the TGI (SNB-78 CNS) was > 100 µM. For the same compound, the TGI (SR leukemia) was > 100 µM, the TGI (SW-620 colon) was > 100 µM and the TGI (TK-10 renal) was > 100 µM. The TGI (U251 CNS) was > 100 µM, the TGI (UACC-257 melanoma) was > 100 µM and the TGI (UACC-62 melanoma) was > 100 µM. The TGI (UO-31 renal) was > 100 µM and the TGI (XF 498 CNS) was > 100 µM.
